Patent US20160106689A1, “USE” (Novabiotics Limited, priority 2014, published 2016)
In brackets after ≈: the same amount, converted by molar mass. Counter-ions that a name gives are not always drawn. Like-named read-outs stand apart in the source and are kept apart here.

Tested on: Pseudomonas aeruginosa (PAO1)
Test: MIC100 determination against the type strain of Pseudomonas aeruginosa (PAO1)
Type: cell-based
Conditions: for MIC: Pseudomonas aeruginosa
Protocol: The MIC100 using cysteamine, oxidised cysteamine and cystamine against the type strain of Pseudomonas aeruginosa (PAO1) was determined. Cysteamine and ‘oxidised’ cysteamine (containing some cystamine) were consistently equivalent at either 250 μg/ml or (as shown in the summary table below) 500 μg/ml. We oxidised the cysteamine by leaving the powder exposed to the air (in a sterile environment) for 5 days—during which time it changes in appearance (turning from an off white crystalline morphology to more of a white powder). It often also accrues water as it is hygroscopic and can also react with air to produce water.

[1] = PAO1, in CA-MHB, three replicates, repeated three times, read-out: MIC100 against PAO1 in CA-MHB
[2] = PAO1, in MHB, three replicates, repeated three times, read-out: MIC100 against PAO1 in MHB

MIC [1] [µg/mL]	MIC [2] [µg/mL]	MIC (PAO1, text statement, medium not stated, consistently either 250 or 500 across experiments, read-out: MIC100 against PAO1) [µg/mL]	MIC100 against PAO1 (medium not stated, consistently either 250 or 500 across experiments) [µg/mL]	Compound	antibacterial activity (in words) (PAO1, oxidised cysteamine compared with fresh cysteamine)
1000	1000	–	–	NCCSSCCN [Cystamine HCl, cystamine]	shown to be antibacterial
500 (≈ 6.48 mM)	500 (≈ 6.48 mM)	250 (≈ 3.24 mM)	500 (≈ 6.48 mM)	NCCS [Cysteamine, cysteamine]	–
